Laboratory results as given in patent publication US11434479B2, “Sialic acid binding polypeptide” (priority 2017, dated 2022).
Changes are numbered by the printed parent chain. “Also recorded” adds a separate entry of the source.

Key:
[1] = biological target: T1, Streptococcus pneumoniae NanB fragment (residues 30-697, SEQ ID NO:4) variant Sia-PS1, Y653F (Streptococcus pneumoniae serotype 4, UniProt Q54727, Y653F); assay: Bio-layer Interferometry (BLI) steady-state binding to immobilized oligosaccharides; conditions: in words
T1 construct: exemplified by a NanB fragment (residues 30-697); made in house; host or cells: pET28a+ based plasmid
T1 sequence (Q54727 30-692 Y653F): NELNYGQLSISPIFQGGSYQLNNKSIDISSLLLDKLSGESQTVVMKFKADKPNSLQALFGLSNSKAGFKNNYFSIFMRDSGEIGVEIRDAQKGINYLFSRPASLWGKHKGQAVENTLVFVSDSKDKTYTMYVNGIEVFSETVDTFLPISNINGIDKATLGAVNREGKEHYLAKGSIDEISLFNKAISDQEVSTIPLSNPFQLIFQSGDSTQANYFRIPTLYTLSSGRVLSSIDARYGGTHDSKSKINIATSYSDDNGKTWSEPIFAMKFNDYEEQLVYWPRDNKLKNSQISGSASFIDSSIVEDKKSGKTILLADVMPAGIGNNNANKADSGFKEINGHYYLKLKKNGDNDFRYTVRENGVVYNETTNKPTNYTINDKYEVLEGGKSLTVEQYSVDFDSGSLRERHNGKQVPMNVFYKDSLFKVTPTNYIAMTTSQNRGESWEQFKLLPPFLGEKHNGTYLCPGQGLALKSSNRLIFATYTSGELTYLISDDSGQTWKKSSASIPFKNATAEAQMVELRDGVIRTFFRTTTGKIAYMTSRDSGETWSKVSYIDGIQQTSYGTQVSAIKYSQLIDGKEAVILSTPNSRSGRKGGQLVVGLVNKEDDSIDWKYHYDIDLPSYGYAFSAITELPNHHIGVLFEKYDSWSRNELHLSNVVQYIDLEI
Text: Lsp=lactose (no sialic acid), 3′SL=α2,3-sialyllactose, 6′SL=α2,6-sialyllactose, GD3=GD3 oligosaccharide that contains a terminal α2,8-linked Neu5Ac residue and an internal α2,3-linked Neu5Ac residue.
The pan-specific sialic acid-recognizing affinity reagent of the invention is exemplified by a NanB fragment (residues 30-697; SEQ ID NO:4) with a single mutation. Exemplary mutation sites include Y653, D270, and E541. Exemplary pan-specific affinity reagents, each having a single mutation in the NanB GH domain as noted, are shown in Table 2 and include Sia-PS1 (Y653F), Sia-PS2 (D270A), Sia-PS3 (D270N), Sia-PS4 (E541A), and Sia-PS5 (E541Q). […] They reduce (Sia-PS2 and Sia-PS3) or effectively eliminate (Sia-PS1, Sia-PS4, and Sia-PS5) catalytic activity, and they broaden specificity for sialic acid ligand binding. The pan-specific sialic acid-recognizing affinity reagent we chose for further validation study was Sia-PS1 that contains the Y653F at active site residue Tyr653. This one mutation, which involves removal of a single hydroxyl group, not only eliminates enzyme activity, but astonishingly introduces pan-specific binding into the mutated, inactivated enzyme, despite its distance from the carbohydrate binding module (CBM) domain of the NanB.
(§1) The flowchart presented in FIG. 2 outlines schematically the methods employed in Example I and II to screen, optimize and select the Lectenz® candidates. The specificity and affinity of potential Lectenz® candidates is evaluated through structurally-guided site-specific and/or site-saturation mutagenesis assays designed to enable the selection of optimal clones. Bio-layer Interferometry (BLI) is used to determine the binding kinetics and affinities for binding to glycans and glycoproteins. Affinity chromatography is performed by immobilizing the Lectenz® candidates in a column format to evaluate their ability to fractionate sialylated- and asialo-glycans and glycoconjugates. All promising Lectenz® candidates are screened against the glycan array at the CFG, which currently contains over 600 O- and N-linked glycans.
Steady-state binding constants between Lectenz® candidates and sialic acid ligands were measured by BLI.

[2] = biological target: MAL (Maackia amurensis leukoagglutinin); conditions: reported values [16, 17]; cited from earlier work
[3] = biological target: T2, Streptococcus pneumoniae NanB fragment (residues 30-697, SEQ ID NO:4) variant Sia-3S1, R193A, D270Q, A538V, E541D (Streptococcus pneumoniae serotype 4, UniProt Q54727, A538V/D270Q/E541D/R193A); assay: Bio-layer Interferometry (BLI) binding to immobilized 3′SL and 6′SL; conditions: in words, well-defined buffer conditions (10 mM EPPS, 10 or 25 mM NaCl, pH 7.5)
T2 construct: exemplified by a NanB fragment (residues 30-697); made in house; host or cells: E. coli
T2 sequence (Q54727 30-692 R193A/D270Q/A538V/E541D): T1 sequence (Q54727 30-692 Y653F) with R164A, D241Q, A509V, E512D, F624Y
Procedure: FIGS. 14A and […] show BLI sensograms for the binding of Sia-3S1 (analyte) under different buffer conditions to oligosaccharides (immobilized ligands): 3′SL=α2,3-sialyllactose, 6′SL=α2,6-sialyllactose.
as §1
The methods are as described in Example I.

SNA (S. Nigra lectin) = conditions: reported values [16]; cited from earlier work

## CC(=O)N[C@H]1[C@H]([C@H](O)[C@H](O)CO)O[C@@](O[C@H](CO)[C@@H](O)[C@@H]2O[C@@](O[C@H]3[C@@H](O)[C@@H](CO)O[C@@H](O[C@H]4[C@H](O)[C@@H](O)C(O)O[C@@H]4CO)[C@@H]3O)(C(=O)O)C[C@H](O)[C@H]2NC(C)=O)(C(=O)O)C[C@@H]1O (stereo partly drawn) [GD3, Neu5Acα2,8Neu5Acα2,3Galβ1, 4Glcβ]
[1]
  binding affinity: micromolar or sub-micromolar; also recorded: sub-micromolar

## CC(=O)N[C@H]1[C@H]([C@H](O)[C@H](O)CO)O[C@@](O[C@H]2[C@@H](O)[C@@H](CO)O[C@@H](O[C@H]3[C@H](O)[C@@H](O)C(O)O[C@@H]3CO)[C@@H]2O)(C(=O)O)C[C@@H]1O (stereo partly drawn) [3′SL, α2,3-sialyllactose]
[2]
  Kd: 1 to 3 µM
[3]
  affinity: high and preferential affinity for 3′SL over 6′SL
[1]
  binding affinity: micromolar or sub-micromolar; also recorded: sub-micromolar

## CC(=O)N[C@H]1[C@H]([C@H](O)[C@H](O)CO)O[C@@](OC[C@H]2O[C@@H](O[C@H]3[C@H](O)[C@@H](O)C(O)O[C@@H]3CO)[C@H](O)[C@@H](O)[C@H]2O)(C(=O)O)C[C@@H]1O (stereo partly drawn) [6′SL, 6′-sialyllactose (Neu5Acα2,6Galβ1, 4Glcβ, or 6′SL)]
SNA (S. Nigra lectin)
  Kd: 0.6 to 0.9 µM
[1]
  binding affinity: micromolar or sub-micromolar; also recorded: sub-micromolar
